Common to all, as to experiment: In vitro cell assay, MTS cell viability 96 hours after treatment
Format in all cases: cell-based

One assay has as its system BT474 (breast cancer). Particulars: Homo sapiens, BT-474, BT474 cells; geometric mean; cytotoxic peptides; read-out: BT474 GMEAN IC50. The method, then: (§1) Cells were treated with 3-fold serially diluted antibody-drug conjugates or free compounds (i.e., no antibody conjugated to the drug) in duplicate at 10 concentrations. Cell viability was determined by CellTiter 96® AQueous One Solution Cell Proliferation MTS Assay (Promega, Madison Wis.) 96 hours after treatment. Relative cell viability was determined as percentage of untreated control.

For another assay, the system named is N87 (gastric cancer). Particulars: read-out: N87 GMEAN IC50, N87 cells; geometric mean; cytotoxic peptides. The method, then: as §1
For assay [1], the system named is MDA-MB-361-DYT2 (breast cancer). The settings on record: read-out: MDA-MB-361-DYT2 GMEAN IC50, MDA-MB-361-DYT2 cells; geometric mean; cytotoxic peptides. As for the experimental part:
as §1

SMILES strings stand for the structures. Starred links: 1 amine or outer side, 2 acyl side, 3 side chain; linkers in the order of their positions; H or OH if unused. Non-standard residues stand in square brackets, D forms with d. Residues, ends and D or L forms follow the SMILES beside them. *: point of attachment. Dolaproine = CO[C@@H]([C@@H]1CCCN1)[C@@H](C)C(=O)O; X12 = O=C([C@@H](N[*:1])[C@@H]1Cc2ccccc21)[*:2]; Dil = CC[C@H](C)[C@H](NC)[C@@H](CC(=O)O)OC; Phe(4-NH2) = Nc1ccc(C[C@H](N)C(=O)O)cc1; X10 = C[C@@H](N*)[C@@H](O)c1ccccc1; Doe = c1ccc(C[C@H](N*)c2nccs2)cc1; NMeαMePro = CN1CCC[C@@]1(C)C(=O)*; d(αMeV) = CC(C)[C@@](C)(N)C(=O)O; d(αMeP) = C[C@]1(C(=O)O)CCCN1; αMeP = C[C@@]1(C(=O)O)CCCN1; X1 = CN1CCC[C@]1(C)C(=O)*; Iva = CC[C@](C)(N)C(=O)O; NMeAib = CNC(C)(C)C(=O)O; X8 = C1=CC=CC(CCN*)C=C1; Aib = CC(C)(N)C(=O)O; X14 = c1[nH]nnc1CN*; NHPr = CCCN*

Consider `CC[C@H](C)[C@@H]([C@@H](CC(=O)N1CCC[C@H]1[C@H](OC)[C@@H](C)C(=O)NCCC1C=CC=CC=C1)OC)N(C)C(=O)[C@@H](NC(=O)[C@@]1(C)CCCN1)C(C)C` [#247] (H-[d(αMeP)]V[Dil][Dolaproine]-X8), for which the results for the IC50 in the assay on BT474 (breast cancer) and with N87 (gastric cancer) were 1.01 nM and 2.06 nM, respectively. As to `CC[C@H](C)[C@@H]([C@@H](CC(=O)N1CCC[C@H]1[C@H](OC)[C@@H](C)C(=O)N[C@@H](Cc1ccccc1)C(=O)OC)OC)N(C)C(=O)[C@@H](NC(=O)[C@](C)(N)C(C)C)C(C)C` [#146, 3-methyl-D-isovalyl-N-{(1S,2R)-4-{(2S)-2-[(1R,2R)-3-{[(1S)-1-benzyl-2-methoxy-2-oxoethyl]amino}-1-methoxy-2-methyl-3-oxopropyl]pyrrolidin-1-yl}-2-methoxy-1-[(1S)-1-methylpropyl]-4-oxobutyl}-N-methyl-L-valinamide] (H-[d(αMeV)]V[Dil][Dolaproine]F-OMe), the IC50 (in general, the concentration that inhibits the measured activity by half) was determined as 0.435 nM with BT474 (breast cancer) and 0.195 nM in the assay with N87 (gastric cancer).

Regarding `CC[C@H](C)[C@@H]([C@@H](CC(=O)N1CCC[C@H]1[C@H](OC)[C@@H](C)C(=O)N[C@@H](Cc1ccccc1)c1nccs1)OC)N(C)C(=O)[C@@H](NC(=O)C(C)(C)N)C(C)C` [#54, 2-methylalanyl-N-[(3R,4S,5S)-3-methoxy-1-{(2S)-2-[(1R,2R)-1-methoxy-2-methyl-3-oxo-3-{[(1S)-2-phenyl-1-(1,3-thiazol-2-yl)ethyl]amino}propyl]pyrrolidin-1-yl}-5-methyl-1-oxoheptan-4-yl]-N-methyl-L-valinamide] (H-[Aib]V[Dil][Dolaproine]-Doe), the half-maximal inhibitory concentration (IC50) was below 0.133 nM in the assay with BT474 (breast cancer) and below 0.221 nM in the assay on N87 (gastric cancer). On to `CC[C@H](C)[C@@H]([C@@H](CC(=O)N1CCC[C@H]1[C@H](OC)[C@@H](C)C(=O)N[C@@H](Cc1ccccc1)C(=O)NCc1c[nH]nn1)OC)N(C)C(=O)[C@@H](NC(=O)C(C)(C)NC)C(C)C` [#240] (H-[NMeAib]V[Dil][Dolaproine]F-X14), for which the values for the IC50 (in assay [1]; in the assay on N87 (gastric cancer)) were 23.5 nM and 19.9 nM, respectively. Regarding `CC[C@H](C)[C@@H]([C@@H](CC(=O)N1CCC[C@H]1[C@H](OC)[C@@H](C)C(=S)N[C@@H](Cc1ccccc1)c1nccs1)OC)N(C)C(=O)[C@@H](NC(=O)[C@@H](NC)C(C)C)C(C)C` [#26, N-methyl-L-valyl-N-[(3R,4S,5S)-3-methoxy-1-{(2S)-2-[(1R,2R)-1-methoxy-2-methyl-3-{[(1S)-2-phenyl-1-(1,3-thiazol-2-yl)ethyl]amino}-3-thioxopropyl]pyrrolidin-1-yl}-5-methyl-1-oxoheptan-4-yl]-N-methyl-L-valinamide], the half-inhibitory concentration (IC50) in assay [1] was found to be 1.04 nM; with N87 (gastric cancer), 0.543 nM. Take `CC[C@H](C)[C@@H]([C@@H](CC(=O)N1CCC[C@H]1[C@H](OC)[C@@H](C)C(=O)N[C@@H](Cc1ccccc1)C(=O)OC)OC)N(C)C(=O)[C@@H](NC(=O)[C@@](C)(N)CC)C(C)C` [#148, L-isovalyl-N-{(1S,2R)-4-{(2S)-2-[(1R,2R)-3-{[(1S)-1-benzyl-2-methoxy-2-oxoethyl]amino}-1-methoxy-2-methyl-3-oxopropyl]pyrrolidin-1-yl}-2-methoxy-1-[(1S)-1-methylpropyl]-4-oxobutyl}-N-methyl-L-valinamide] (H-[Iva]V[Dil][Dolaproine]F-OMe): the IC50 in the assay with BT474 (breast cancer) came to 0.429 nM.

On to `CC[C@H](C)[C@@H]([C@@H](CC(=O)N1CCC[C@H]1[C@H](OC)[C@@H](C)C(=O)N[C@@H](Cc1ccccc1)C(=O)OC)OC)N(C)C(=O)[C@@H](NC(=O)[C@@]1(C)CCCN1)C(C)C` [#131, 2-methyl-D-prolyl-N-[(3R,4S,5S)-3-methoxy-1-{(2S)-2-[(1R,2R)-1-methoxy-3-{[(2S)-1-methoxy-1-oxo-3-phenylpropan-2-yl]amino}-2-methyl-3-oxopropyl]pyrrolidin-1-yl}-5-methyl-1-oxoheptan-4-yl]-N-methyl-L-valinamide] (H-[d(αMeP)]V[Dil][Dolaproine]F-OMe), for which, in the assay with BT474 (breast cancer), the IC50 was determined as 0.072 nM. For `CC[C@H](C)[C@@H]([C@@H](CC(=O)N1CCC[C@H]1[C@H](OC)[C@@H](C)C(=O)N[C@@H](Cc1ccccc1)C(=O)OC)OC)N(C)C(=O)[C@@H](NC(=O)C(C)(C)N)C(C)C` [#70, 2-methylalanyl-N-[(3R,4S,5S)-3-methoxy-1-{(2S)-2-[(1R,2R)-1-methoxy-3-{[(2S)-1-methoxy-1-oxo-3-phenylpropan-2-yl]amino}-2-methyl-3-oxopropyl]pyrrolidin-1-yl}-5-methyl-1-oxoheptan-4-yl]-N-methyl-L-valinamide] (H-[Aib]V[Dil][Dolaproine]F-OMe), the IC50 in assay [1] came out at 0.225 nM; with N87 (gastric cancer), 0.327 nM. Turning to `CCCNC(=O)[C@H](Cc1ccccc1)NC(=O)[C@H](C)[C@@H](OC)[C@@H]1CCCN1C(=O)C[C@@H](OC)[C@H]([C@@H](C)CC)N(C)C(=O)[C@@H](NC(=O)C(C)(C)NC)C(C)C` [#142, N,2-dimethylalanyl-N-{(1S,2R)-4-{(2S)-2-[(1R,2R)-3-{[(1S)-1-benzyl-2-oxo-2-(propylamino)ethyl]amino}-1-methoxy-2-methyl-3-oxopropyl]pyrrolidin-1-yl}-2-methoxy-1-[(1S)-1-methylpropyl]-4-oxobutyl}-N-methyl-L-valinamide] (H-[NMeAib]V[Dil][Dolaproine]F-NHPr), the IC50 in the assay with BT474 (breast cancer) came out at 0.279 nM.

For `CC[C@H](C)[C@@H]([C@@H](CC(=O)N1CCC[C@H]1[C@H](OC)[C@@H](C)C(=S)NCCc1ccccc1)OC)N(C)C(=O)[C@@H](NC(=O)[C@@H](NC)C(C)C)C(C)C` [#36, N-methyl-L-valyl-N-{(3R,4S,5S)-3-methoxy-1-[(2S)-2-{(1R,2R)-1-methoxy-2-methyl-3-[(2-phenylethyl)amino]-3-thioxopropyl}pyrrolidin-1-yl]-5-methyl-1-oxoheptan-4-yl}-N-methyl-L-valinamide], the IC50 was found to be 1.11 nM in assay [1] and 1.21 nM in the assay on N87 (gastric cancer).

Turning to `CC[C@H](C)[C@@H]([C@@H](CC(=O)N1CCC[C@H]1[C@H](OC)[C@@H](C)C(=O)N[C@H](C(=O)OC)[C@@H]1Cc2ccccc21)OC)N(C)C(=O)[C@@H](NC(=O)C(C)(C)N)C(C)C` [#227] (H-[Aib]V[Dil][Dolaproine][X12]-OMe), the IC50 was determined as 12.9 nM in assay [1] and 19 nM in the assay on N87 (gastric cancer). Take `CC[C@H](C)[C@@H]([C@@H](CC(=O)N1CCC[C@H]1[C@H](OC)[C@@H](C)C(=O)N[C@@H](Cc1ccccc1)C(=O)O)OC)N(C)C(=O)[C@@H](NC(=O)[C@@]1(C)CCCN1C)C(C)C` [#153, 1,2-dimethyl-D-prolyl-N-{(1S,2R)-4-{(2S)-2-[(1R,2R)-3-{[(1S)-1-carboxy-2-phenylethyl]amino}-1-methoxy-2-methyl-3-oxopropyl]pyrrolidin-1-yl}-2-methoxy-1-[(1S)-1-methylpropyl]-4-oxobutyl}-N-methyl-L-valinamide] (X1-V[Dil][Dolaproine]F-OH): the half-inhibitory concentration (IC50) in assay [1] was 91.3 nM; in the assay with N87 (gastric cancer), 47.3 nM. In the case of `CC[C@H](C)[C@@H]([C@@H](CC(=O)N1CCC[C@H]1[C@H](OC)[C@@H](C)C(=O)NCCC1C=CC=CC=C1)OC)N(C)C(=O)[C@@H](NC(=O)[C@]1(C)CCCN1)C(C)C` [#182, 2-methyl-L-prolyl-N-[(3R,4S,5S)-1-{(2S)-2-[(1R,2R)-3-{[2-(cyclohepta-2,4,6-trien-1-yl)ethyl]amino}-1-methoxy-2-methyl-3-oxopropyl]pyrrolidin-1-yl}-3-methoxy-5-methyl-1-oxoheptan-4-yl]-N-methyl-L-valinamide] (H-[αMeP]V[Dil][Dolaproine]-X8), the IC50 in assay [1] came to 0.122 nM; in the assay on N87 (gastric cancer), 0.148 nM.

On to `CC[C@H](C)[C@@H]([C@@H](CC(=O)N1CCC[C@H]1[C@H](OC)[C@@H](C)C(=O)N[C@@H](Cc1ccc(N)cc1)C(=O)OC)OC)N(C)C(=O)[C@@H](NC(=O)[C@]1(C)CCCN1C)C(C)C` [#208, 1,2-dimethyl-L-prolyl-N-[(3R,4S,5S)-1-{(2S)-2-[(1R,2R)-3-{[(2S)-3-(4-aminophenyl)-1-methoxy-1-oxopropan-2-yl]amino}-1-methoxy-2-methyl-3-oxopropyl]pyrrolidin-1-yl}-3-methoxy-5-methyl-1-oxoheptan-4-yl]-N-methyl-L-valinamide] (NMeαMePro-V[Dil][Dolaproine][Phe(4-NH2)]-OMe), for which the IC50 in assay [1] is 0.336 nM; in the assay on N87 (gastric cancer), 0.379 nM.

Regarding `CC[C@H](C)[C@@H]([C@@H](CC(=O)N1CCC[C@H]1[C@H](OC)[C@@H](C)C(=O)N[C@@H](Cc1ccc(O)cc1)C(=O)OC)OC)N(C)C(=O)[C@@H](NC(=O)C(C)(C)NC)C(C)C` [#243] (H-[NMeAib]V[Dil][Dolaproine]Y-OMe), the IC50 in assay [1] is 1.28 nM; in the assay on N87 (gastric cancer) it was 1.3 nM. On to `CC[C@H](C)[C@@H]([C@@H](CC(=O)N1CCC[C@H]1[C@H](OC)[C@@H](C)C(=O)N[C@H](C)[C@@H](O)c1ccccc1)OC)N(C)C(=O)[C@@H](NC(=O)[C@]1(C)CCCN1)C(C)C` [#134, 2-methyl-L-prolyl-N-[(3R,4S,5S)-1-{(2S)-2-[(1R,2R)-3-{[(1S,2R)-1-hydroxy-1-phenylpropan-2-yl]amino}-1-methoxy-2-methyl-3-oxopropyl]pyrrolidin-1-yl}-3-methoxy-5-methyl-1-oxoheptan-4-yl]-N-methyl-L-valinamide] (H-[αMeP]V[Dil][Dolaproine]-X10), for which the IC50 in assay [1] is 0.134 nM; in the assay on N87 (gastric cancer), 0.115 nM. For the molecule `CC[C@H](C)[C@@H]([C@@H](CC(=O)N1CCC[C@H]1[C@H](OC)[C@@H](C)C(=O)N[C@@H](Cc1ccccc1)C(=O)OC)OC)N(C)C(=O)[C@@H](NC(=O)C(C)(C)CN)C(C)C` [#126, methyl N-[(2R,3R)-3-{(2S)-1-[(3R,4S,5S)-4-{[N-(3-amino-2,2-dimethylpropanoyl)-L-valyl](methyl)amino}-3-methoxy-5-methylheptanoyl]pyrrolidin-2-yl}-3-methoxy-2-methylpropanoyl]-L-phenylalaninate], the half-maximal inhibitory concentration (IC50) in assay [1] worked out at 0.454 nM; in the assay with N87 (gastric cancer), 0.375 nM.

For the origin of these results see patent publication US8828401B2, “Cytotoxic peptides and antibody drug conjugates thereof” (Pfizer Inc., priority 2011, dated 2014).
